Reference: the supplement of paper PMC10307832

These cell lines were tested with C1CSC2=C(C(=O)N1)SC3=C2C=C(C=C3)O [kb NB 142-70] + CC(=O)c1c(C)c2cnc(Nc3ccc(N4CCNCC4)cn3)nc2n(C2CCCC2)c1=O [Palbociclib] (partner 0.5 µM) (assay: relative viability (nuclei count vs DMSO), 5 days (fraction); higher = more cells survive). Details: first compound 1 µM.
Method in brief: (§1)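 Relative viability is defined as nuclei in treated wells over nuclei in vehicle wells. Duplicate plates were run and medians reported. Lung cancer cell lines in 1536-well plates were dosed by pin tool one day after seeding, with one drug or with a fixed anchor-drug dose plus five library-drug doses (not always all listed) in √10 steps, and nuclei were counted after 5 days.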

Question: With HCC-366 as the cell line, how does the relative viability read?
Answer: 0.477

Question: How did the relative viability turn out when NCI-H1666 was run?
Answer: 0.591

Question: LK-2 was tested. Which relative viability did it give?
Answer: 0.476

Question: NCI-H2087 was tested. Which relative viability did it give?
Answer: 0.252

Question: Which relative viability does the source give for NCI-H1648 here?
Answer: 0.275

Question: Which relative viability does the source give for SK-MES-1 here?
Answer: 0.424

Question: Which relative viability does the source give for H3255 here?
Answer: 0.314

Question: How did the relative viability turn out when COR-L23 was run?
Answer: 0.317

Question: With COR-L 105 as the cell line, how does the relative viability read?
Answer: 0.369

Question: For LOU-NH91, which relative viability is on record?
Answer: 0.536

Question: How did the relative viability turn out when ChaGo-K-1 was run?
Answer: 0.803

Question: How did the relative viability turn out when NCI-H2170 was run?
Answer: 0.44

Question: For NCI-H2405, which relative viability is on record?
Answer: 0.563

Question: With HOP-62 as the cell line, how does the relative viability read?
Answer: 0.473

Question: For HCC-44, which relative viability is on record?
Answer: 1

Question: With NCI-H522 as the cell line, how does the relative viability read?
Answer: 0.789

Question: How did the relative viability turn out when LU99A was run?
Answer: 0.447

Question: BEN was tested. Which relative viability did it give?
Answer: 0.459

Question: With HARA as the cell line, how does the relative viability read?
Answer: 0.327

Question: Which relative viability does the source give for SW 900 here?
Answer: 0.463

Question: HCC-78 was tested. Which relative viability did it give?
Answer: 0.443

Question: Which relative viability does the source give for NCI-H441 here?
Answer: 0.209

Question: For NCI-H1395, which relative viability is on record?
Answer: 0.685

Question: How did the relative viability turn out when NCI-H1793 was run?
Answer: 0.329

Same assay, conditions: first compound 3.162 µM

Question: NCI-H2342 was tested. Which relative viability did it give?
Answer: 0.589

Question: NCI-H727 was tested. Which relative viability did it give?
Answer: 0.678

Question: How did the relative viability turn out when NCI-H1650 was run?
Answer: 0.321

Question: How did the relative viability turn out when NCI-H1993 was run?
Answer: 0.638

Question: How did the relative viability turn out when SW 1573 was run?
Answer: 0.208

Question: How did the relative viability turn out when NCI-H838 was run?
Answer: 0.188

Question: For LCLC-103H, which relative viability is on record?
Answer: 0.504

Question: Which relative viability does the source give for NCI-H520 here?
Answer: 0.164

Question: With NCI-H2126 as the cell line, how does the relative viability read?
Answer: 0.345

Question: How did the relative viability turn out when EMC-BAC-2 was run?
Answer: 0.516

Question: NCI-H2085 was tested. Which relative viability did it give?
Answer: 0.367

Question: HCC-366 was tested. Which relative viability did it give?
Answer: 0.356

Question: With NCI-H1666 as the cell line, how does the relative viability read?
Answer: 0.693

Question: With LK-2 as the cell line, how does the relative viability read?
Answer: 0.352

Question: Which relative viability does the source give for NCI-H2087 here?
Answer: 0.215

Question: For NCI-H1648, which relative viability is on record?
Answer: 0.206

Question: With SK-MES-1 as the cell line, how does the relative viability read?
Answer: 0.402

Question: How did the relative viability turn out when H3255 was run?
Answer: 0.316

Question: How did the relative viability turn out when COR-L23 was run?
Answer: 0.186

Question: How did the relative viability turn out when COR-L 105 was run?
Answer: 0.433

Question: How did the relative viability turn out when LOU-NH91 was run?
Answer: 0.417

Question: With ChaGo-K-1 as the cell line, how does the relative viability read?
Answer: 0.838

Question: NCI-H2170 was tested. Which relative viability did it give?
Answer: 0.392

Question: With NCI-H2405 as the cell line, how does the relative viability read?
Answer: 0.499

Question: With HOP-62 as the cell line, how does the relative viability read?
Answer: 0.441

Question: Which relative viability does the source give for HCC-44 here?
Answer: 1.03

Question: How did the relative viability turn out when NCI-H522 was run?
Answer: 0.77

Question: With LU99A as the cell line, how does the relative viability read?
Answer: 0.413

Question: For BEN, which relative viability is on record?
Answer: 0.488

Question: How did the relative viability turn out when HARA was run?
Answer: 0.259

Question: SW 900 was tested. Which relative viability did it give?
Answer: 0.458

Question: Which relative viability does the source give for HCC-78 here?
Answer: 0.412

Question: For NCI-H441, which relative viability is on record?
Answer: 0.169

Question: How did the relative viability turn out when NCI-H1395 was run?
Answer: 0.631

Question: Which relative viability does the source give for NCI-H1793 here?
Answer: 0.357

What follows are cell lines tested with NCC(=O)Nc1ccc(-n2nc(C(F)(F)F)cc2-c2ccc3c(ccc4ccccc43)c2)cc1 + COc1cccc2cc(-c3nc([C@H]4CC[C@H](C(=O)O)CC4)n4ncnc(N)c34)[nH]c12 [OSI-027] (partner 0.5 µM) in the same assay as above. Details: first compound 0.02 µM.
Method in brief: as §1

Question: For NCI-H2342, which relative viability is on record?
Answer: 0.666

Question: How did the relative viability turn out when NCI-H1623 was run?
Answer: 0.439

Question: With NCI-H727 as the cell line, how does the relative viability read?
Answer: 0.533

Question: How did the relative viability turn out when NCI-H1650 was run?
Answer: 0.7

Question: Which relative viability does the source give for NCI-H1993 here?
Answer: 0.545

Question: SW 1573 was tested. Which relative viability did it give?
Answer: 0.593

Question: For NCI-H838, which relative viability is on record?
Answer: 0.406

Question: With LCLC-103H as the cell line, how does the relative viability read?
Answer: 0.412

Question: For NCI-H520, which relative viability is on record?
Answer: 0.238

Question: For NCI-H2126, which relative viability is on record?
Answer: 0.773

Question: With EMC-BAC-2 as the cell line, how does the relative viability read?
Answer: 0.292

Question: For NCI-H2085, which relative viability is on record?
Answer: 0.688

Question: With HCC-366 as the cell line, how does the relative viability read?
Answer: 0.829

Question: How did the relative viability turn out when NCI-H1666 was run?
Answer: 0.932

Question: How did the relative viability turn out when NCI-H596 was run?
Answer: 0.731

Question: For LK-2, which relative viability is on record?
Answer: 0.182

Question: How did the relative viability turn out when NCI-H2087 was run?
Answer: 0.543

Question: With NCI-H1648 as the cell line, how does the relative viability read?
Answer: 0.248

Question: SK-MES-1 was tested. Which relative viability did it give?
Answer: 0.677

Question: For H3255, which relative viability is on record?
Answer: 0.557

Question: For COR-L23, which relative viability is on record?
Answer: 0.765

Question: Which relative viability does the source give for COR-L 105 here?
Answer: 0.593

Question: For LOU-NH91, which relative viability is on record?
Answer: 0.752

Question: For ChaGo-K-1, which relative viability is on record?
Answer: 0.475

Question: Which relative viability does the source give for NCI-H2170 here?
Answer: 0.67

Question: With NCI-H2405 as the cell line, how does the relative viability read?
Answer: 0.634

Question: Which relative viability does the source give for HOP-62 here?
Answer: 0.852

Question: For HCC-44, which relative viability is on record?
Answer: 0.461

Question: Which relative viability does the source give for LU99A here?
Answer: 0.285

Question: BEN was tested. Which relative viability did it give?
Answer: 0.281

Question: How did the relative viability turn out when HARA was run?
Answer: 0.434

Question: With HCC-78 as the cell line, how does the relative viability read?
Answer: 0.402

Question: How did the relative viability turn out when NCI-H441 was run?
Answer: 0.647

Question: NCI-H1395 was tested. Which relative viability did it give?
Answer: 0.709

Question: With NCI-H1793 as the cell line, how does the relative viability read?
Answer: 0.26

Question: Which relative viability does the source give for NCI-H1563 here?
Answer: 0.785

Same assay, conditions: first compound 0.06325 µM

Question: How did the relative viability turn out when NCI-H2342 was run?
Answer: 0.726

Question: How did the relative viability turn out when NCI-H1623 was run?
Answer: 0.475

Question: For NCI-H727, which relative viability is on record?
Answer: 0.504

Question: With NCI-H1650 as the cell line, how does the relative viability read?
Answer: 0.806

Question: NCI-H1993 was tested. Which relative viability did it give?
Answer: 0.493

Question: For SW 1573, which relative viability is on record?
Answer: 0.658

Question: How did the relative viability turn out when NCI-H838 was run?
Answer: 0.461

Question: With LCLC-103H as the cell line, how does the relative viability read?
Answer: 0.43

Question: NCI-H520 was tested. Which relative viability did it give?
Answer: 0.265

Question: For NCI-H2126, which relative viability is on record?
Answer: 0.753

Question: How did the relative viability turn out when EMC-BAC-2 was run?
Answer: 0.367

Question: How did the relative viability turn out when NCI-H2085 was run?
Answer: 0.908

Question: With HCC-366 as the cell line, how does the relative viability read?
Answer: 1.08

Question: How did the relative viability turn out when NCI-H1666 was run?
Answer: 0.836

Question: With NCI-H596 as the cell line, how does the relative viability read?
Answer: 0.865

Question: Which relative viability does the source give for LK-2 here?
Answer: 0.207

Question: Which relative viability does the source give for NCI-H2087 here?
Answer: 0.612

Question: How did the relative viability turn out when NCI-H1648 was run?
Answer: 0.262

Question: Which relative viability does the source give for SK-MES-1 here?
Answer: 0.575

Question: For H3255, which relative viability is on record?
Answer: 0.617

Question: With COR-L23 as the cell line, how does the relative viability read?
Answer: 0.894

Question: With COR-L 105 as the cell line, how does the relative viability read?
Answer: 0.626

Question: For LOU-NH91, which relative viability is on record?
Answer: 0.737

Question: With ChaGo-K-1 as the cell line, how does the relative viability read?
Answer: 0.661

Question: With NCI-H2170 as the cell line, how does the relative viability read?
Answer: 0.678

Question: With NCI-H2405 as the cell line, how does the relative viability read?
Answer: 0.646

Question: With HOP-62 as the cell line, how does the relative viability read?
Answer: 0.801

Question: For HCC-44, which relative viability is on record?
Answer: 0.743

Question: With NCI-H522 as the cell line, how does the relative viability read?
Answer: 0.785

Question: LU99A was tested. Which relative viability did it give?
Answer: 0.29

Question: How did the relative viability turn out when BEN was run?
Answer: 0.32

Question: HARA was tested. Which relative viability did it give?
Answer: 0.582

Question: SW 900 was tested. Which relative viability did it give?
Answer: 0.54

Question: With HCC-78 as the cell line, how does the relative viability read?
Answer: 0.375

Question: NCI-H441 was tested. Which relative viability did it give?
Answer: 0.675

Question: NCI-H1395 was tested. Which relative viability did it give?
Answer: 0.688

Question: NCI-H1793 was tested. Which relative viability did it give?
Answer: 0.263

Question: For NCI-H1563, which relative viability is on record?
Answer: 0.786

Same assay, conditions: first compound 0.2 µM

Question: With NCI-H2342 as the cell line, how does the relative viability read?
Answer: 0.635

Question: Which relative viability does the source give for NCI-H1623 here?
Answer: 0.395

Question: With NCI-H727 as the cell line, how does the relative viability read?
Answer: 0.579

Question: NCI-H1993 was tested. Which relative viability did it give?
Answer: 0.541

Question: SW 1573 was tested. Which relative viability did it give?
Answer: 0.759

Question: With NCI-H838 as the cell line, how does the relative viability read?
Answer: 0.428

Question: How did the relative viability turn out when LCLC-103H was run?
Answer: 0.443

Question: With NCI-H520 as the cell line, how does the relative viability read?
Answer: 0.296

Question: Which relative viability does the source give for NCI-H2126 here?
Answer: 0.726

Question: How did the relative viability turn out when EMC-BAC-2 was run?
Answer: 0.371

Question: How did the relative viability turn out when NCI-H2085 was run?
Answer: 0.654

Question: Which relative viability does the source give for HCC-366 here?
Answer: 1.09

Question: With NCI-H1666 as the cell line, how does the relative viability read?
Answer: 0.945

Question: NCI-H596 was tested. Which relative viability did it give?
Answer: 0.83

Question: Which relative viability does the source give for LK-2 here?
Answer: 0.21

Question: For NCI-H2087, which relative viability is on record?
Answer: 0.546

Question: With NCI-H1648 as the cell line, how does the relative viability read?
Answer: 0.257

Question: For SK-MES-1, which relative viability is on record?
Answer: 0.622

Question: For H3255, which relative viability is on record?
Answer: 0.629

Question: Which relative viability does the source give for COR-L23 here?
Answer: 0.836

Question: COR-L 105 was tested. Which relative viability did it give?
Answer: 0.623

Question: Which relative viability does the source give for LOU-NH91 here?
Answer: 0.711
